Measurements published in article PMC5902495, “Synthesis of Symmetrical Tetrameric Conjugates of the Radiolanthanide Chelator DOTPI for Application in Endoradiotherapy by Means of Click Chemistry” (Frontiers in Chemistry, 2018).
Values joined by “and” are separate entries in the source; they are usually repeats but may differ in a detail not shown here. Identical values can stand only once. Like-named read-outs stand apart in the source and are kept apart here. Marks after values point to notes of the source that are not given here. Blank lines part the entries; values can stand above or below the compound they belong to.

Columns and labels:
[1] = cited from earlier work
[2] = cited from earlier work; remark: listed apart in the source
[3] = 25°C, cited from earlier work
[4] = 25°C, cited from earlier work; remark: listed apart in the source
[5] = set-up: method as in Chaves et al., [1992]; conditions: ref Chaves et al., [1992]; cited from earlier work
[6] = Protonation constants of ligands by pH-potentiometry; format: physicochemical; conditions: 25°C, I = 0.15 M NaCl
Excerpt: (§1) For determining the protonation constants of DOTPI(Chx)4 and DOTPI three parallel pH-potentiometric titration were made with 0.2 M NaOH in 0.002 M ligand solutions. The stability and protonation constants of the Ca^II and Zn^II complexes formed with DOTPI(Chx)4 and DOTPI ligands have been determined by direct pH-potentiometric titration made at 1:1 and 2:1 metal to ligand concentration ratios. (the concentration of ligands was 0.002 M). For the calculation of the logKML and logKMLHi values, the mL base—pH data used were obtained in the pH range 1.7–12.0.
(§2) For pH measurements and titrations, a Metrohm 785 DMP Titrino titration workstation and a Metrohm-6.0233.100 combined electrode were used. Equilibrium measurements were carried out at a constant ionic strength (0.15 M NaCl) in 6 mL samples at 25°C. The solutions were stirred, and constantly purged with N2. The titrations were performed in a pH range of 1.7–11.7. KH-phthalate (pH = 4.005) and borax (pH = 9.177) buffers were used to calibrate the pH meter. For calculation of [H^+] from measured pH values, the method proposed by Irving et al. was used (Irving et al., [1967]). A 0.01 M HCl solution was titrated with the standardized NaOH solution in the presence of 0.1 M NaCl. Differences between the measured (pHread) and calculated pH (–log[H^+]) values were used to obtain the equilibrium H^+ concentration from the pH values, measured in the titration experiments. For the equilibrium calculations, the stoichiometric water ionic product (pKw) is also needed to calculate [H^+] values in basic conditions. The VNaOH – pHread data pairs of the HCl – NaOH titration obtained in the pH range 10.5–12 have been used to calculate the pKw value (pKw = 13.85). For the calculation of the equilibrium constants the program PSEQUAD (Zekany and Nagypal, [1985]) was used.
(§3) 2. Protonation and complexation equilibria of DOTPI and
(§4) The protonation processes of the DOTPI and DOTPI(Chx)4, ligands have been studied by pH-potentiometry. The protonation constants (logKiH) of ligands are defined according to Eq. (1).
(§5) The stability and protonation constants of DOTPI and DOTPI(Chx)4 complexes with several metal ions were determined by pH-potentiometric and UV/Vis spectrophotometric, methods.
(§6) The stability and protonation constants of the metal complexes formed with the DOTPI and DOTPI(Chx)4, ligands, defined by Eqs. […]
(§7) where i = 1, 2, 3…5. The KML and KMHiL values characterizing the formation of DOTPI and DOTPI(Chx)4 complexes of CaII and ZnII have been calculated from the pH-potentiometric titration data obtained at 1:1 metal to ligand concentration ratios. The protonation constants of the complexes Cu(DOTPI) and Cu(DOTPI( Chx)4) were also determined by pH-potentiometric titrations, made at 1:1 metal to ligand concentration ratio. The pH-potentiometric titrations of DOTPI ligand were also performed at 2:1 metal-to-ligand ratio in order to examine the possible formation of dinuclear CaII-, ZnII-, and CuII-DOTPI complexes.
(§8) The stability and protonation constants of the dinuclear complexes formed with the DOTPI […]
(§9) where i=1 and 2. In calculating the equilibrium constants, the best fit of the mL base – pH data was obtained by assuming the formation of ML, MHL, MH 2L, MH3L, MH4L, MH5L, M2L, M2LH, and M2LH2 complexes with DOTPI and DOTPI(Chx)4.
(§10) (also on this page, place not known: ]H][LH[ ]LH[K 1i iH + − = DOTPI( Chx)4 f ormed ]L][M[ ]ML[K ML = ]H][LMH[ ]LMH[K 1i i LMHi + − = i 3 …5. Ca II Zn II -potentiometric pH - metal -to-ligand Cu II-DOTPI ]M][ML[ ]LM[K 2 LM2 = ]H][LHM[ ]LHM[K 1i2 i2 LHM i2 + − = pH MH 4L,) […]

[7] = Stability and protonation constants of Ca^II complexes (pH-potentiometry); format: physicochemical; conditions: 25°C, I = 0.15 M NaCl, potentiometry
Excerpt: as §1, §2, §3, §4, §5, §6
as §7, with “The pH-potentiometric titrations of DOTPI ligand were also performed at 2:1 metal-to-ligand ratio in order to examine the possible formation of dinuclear CaII-, ZnII-, and CuII-DOTPI complexes.” left out

[8] = Stability and protonation constants of Zn^II complexes (pH-potentiometry); format: physicochemical; conditions: 25°C
Excerpt: as §1, §2, §3, §4, §5, §6, §7, §8, §9, §10

[9] = Stability and protonation constants of Cu^II complexes (spectrophotometry, pH-potentiometry); format: physicochemical; conditions: 25°C
Protocol: Stability constant of Cu(DOTPI) complex was determined by spectrophotometry, studying the Cu^II-DOTPI systems at the absorption band of Cu^II-complex at [H^+] = 0.01– 0.2 M over the wavelength range of 400–800 nm. Concentrations of Cu^II and DOTPI were 1 mM. The H^+ concentration in the samples was adjusted by addition of calculated amounts of 2.0 M HCl, while ionic strength was not constant in these samples. Samples were kept at 25°C for a week. Absorbance values were determined at 9 wavelengths (550, 575, 600, 625, 650, 675, 700, 725, and 750 nm). For calculation of stability and protonation constants of Cu(DOTPI), molar absorptivities of CuCl2, and Cu(HxL) species (wherein x = 0, 1, 2 …5) were determined by recording the spectra of 1.0 × 10^−3, 2.0 × 10^−3 and 3.0 × 10^−3 M solutions of CuCl2 and Cu(DOTPI) in the pH range of 1.7–11.7. The protonation constants of the complexes Cu(DOTPI) and the stability and protonation constants of the dinuclear Cu2(DOTPI) complexes were determined by pH-potentiometric titrations, made at 1:1 and 2:1 metal to ligand concentration ratios.
The stability constant of the Cu(DOTPI(Chx)4) complex has been determined by spectrophotometry with the use of competition reactions between DOTPI(Chx)4 and EDTA for the Cu^2+ at pH = 5.0. The concentration of Cu(EDTA) was 0.2 mM, while that of the DOTPI(Chx)4 was varied between 0.1 and 1.0 mM (5 samples). The samples were kept at 25°C for 2 weeks. The absorbance values and the molar absorptivities of CuCl2, Cu(DOTPI(Chx)4), and Cu(EDTA) have been determined at 11 wavelength (300, 304, 308, 312, 316, 320, 324, 328, 332, 336, and 340 nm) values between 300 and 340 nm. The molar absorptivities of CuCl2, Cu(DOTPI(Chx)4), and Cu(EDTA) were deteremined in 0.05, 0.1, 0.2, 0.3, and 0.4 mM solutions. The absorbance and pH values were determined in the samples after the equilibrium was reached (the time needed to reach the equilibria was determined by spectrophotometry). The spectrophotometric measurements were made with the use of 1.0 cm cells with a Cary 1E spectrophotometer at 25°C. The protonation constants of Cu(DOTPI(Chx)4) complex were determined by pH-potentiometric titrations at 1:1 metal to ligand molar ratio.
as §2, with “The VNaOH – pHread data pairs of the HCl – NaOH titration obtained in the pH range 10.5–12 have been used to calculate the pKw value (pKw = 13.85).” left out
as §3, §4, §5
The stability and protonation constants of the metal complexes formed with the DOTPI and […]

[10] = 25°C, I = 0.15 M NaCl, ref Baranyai et al., [2010]
[11] = I = 0.15 M NaCl, ref Takács et al., [2014]
[12] = 25°C, I = 0.1 M KNO3, ref Bazakas and Lukeš, [1995], Kotková et al., [2009]
[13] = 25°C, I = 0.1 M KNO3, ref Lázár et al., [1991]
[14] = I = 0.1 M KNO3, ref Baranyai et al., [2007]
[15] = I = 0.1 M KNO3, ref Desreux et al., [1981]

Structure (SMILES): O=C([O-])CN(CCN(CC(=O)[O-])CC(=O)[O-])CC(=O)[O-].[Cu+2] [Cu(EDTA), reference compound]
stability constant of the Cu(EDTA) complex ([1]; taken from the literature): 19.05

Structure (SMILES): O=C(O)CN1CCN(CC(=O)O)CCN(CC(=O)O)CCN(CC(=O)O)CC1 [DOTA, 1,4,7,10-tetraazacyclododecane-1,4,7,10-tetraacetic acid]
log K1H [2, 10]: 9.14
log K2H [2, 10]: 9.21
log K3H [2, 10]: 4.48
log K4H [2, 10]: 4.03
log K5H [2, 10]: 1.99
log K6H [2, 10]: 1.58
Σlog KiH (total basicity) [2, 10]: 30.43
protonation constant ZnH2L ([3]; 0.15 M NaCl): 3.40 (1)
protonation constant ZnHL ([3]; 0.15 M NaCl): 4.16 (2)
logKML, ZnL [3, 11]: 17.35 (1)
protonation constant CaHL ([4]; 0.15 M NaCl): 3.90 (2)
logKML, CaL [4, 11]: 13.84 (1)
protonation constant CuH2L ([1]; 25°C, 0.15 M NaCl): 3.41 (1)
protonation constant CuH3L ([1]; 25°C, 0.15 M NaCl): 0.83 (2)
protonation constant CuHL ([1]; 25°C, 0.15 M NaCl): 4.08 (1)
logKML, CuL ([1]; 25°C, I = 0.15 M NaCl, ref Takács et al., [2014]): 21.97 (1)

Structure (SMILES): O=C([O-])CN1CCN(CC(=O)O)CCN(CC(=O)O)CCN(CC(=O)O)CC1.[Na+] [[Na(DOTA)]^3−]
logKNaL [5]: 4.38

Structure (SMILES): O=[PH](O)CN1CCN(C[PH](=O)O)CCN(C[PH](=O)O)CCN(C[PH](=O)O)CC1 [DOTP^H]
log K1H [2, 12]: 10.41 and 10.58
log K2H [2, 12]: 6.83 and 6.93
log K3H [2, 12]: 1.97 and 1.90
Σlog KiH (total basicity) [2, 12]: 19.21 and 19.41
log K1H [2, 13]: 10.94
log K2H [2, 13]: 8.24
log K3H [2, 13]: 3.71
Σlog KiH (total basicity) [2, 13]: 22.89
protonation constant ZnHL ([3]; 0.1 M KNO3): 2.62
logKML, ZnL [3, 14]: 14.60
logKML, ZnL [3, 15]: 15.80
protonation constant CaHL ([4]; 0.1 M KNO3): 3.94
logKML, CaL [4, 14]: 9.46
logKML, CaL [4, 15]: 9.39
logKML, CuL ([1]; 25°C, I = 0.1 M KNO3, ref Baranyai et al., [2007]): 18.03
logKML, CuL ([1]; 25°C, I = 0.1 M KNO3, ref Desreux et al., [1981]): 19.59

log K1H [6]: 9.89 (1)
log K2H [6]: 7.73 (1)
log K3H [6]: 3.34 (1)
Σlog KiH (total basicity) ([6]; distant carboxylate groups of DOTPI not considered): 20.96
logKML, CaL [7]: 8.99 (2)^b
protonation constant ZnHL ([8]; 0.15 M NaCl): 2.44 (8)
logKML, ZnL ([8]; I = 0.15 M NaCl, potentiometry): 15.13 (1)^b
protonation constant CuH2L ([9]; 0.15 M NaCl): 1.55 (2)
protonation constant CuHL ([9]; 0.15 M NaCl): 2.46 (1)
logKML, CuL ([9]; I = 0.15 M NaCl, UV/Vis spectroscopy): 20.42 (1)^a
Structure (SMILES): O=C(CCP(=O)(O)CN1CCN(CP(=O)(O)CCC(=O)NC2CCCCC2)CCN(CP(=O)(O)CCC(=O)NC2CCCCC2)CCN(CP(=O)(O)CCC(=O)NC2CCCCC2)CC1)NC1CCCCC1 [DOTPI(Chx)4]

Structure (SMILES): O=C(O)CN(CCN(CC(=O)O)CC(=O)O)CC(=O)O [EDTA, ethylenediamine-tetraacetic acid]
logK1H ([2]; taken from the literature): 9.43
logK2H ([2]; taken from the literature): 6.12
logK3H ([2]; taken from the literature): 2.85
logK4H ([2]; taken from the literature): 2.18
logK5H ([2]; taken from the literature): 1.77
